According to paper PMC8954547, “Nonpeptidic Z360-Analogs Tagged with Trivalent Radiometals as Anti-CCK2R Cancer Theranostic Agents: A Preclinical Study” (Pharmaceutics, 2022):

What was measured:
HEK293-CCK2i4svR cells = experiment: Radioligand uptake and internalization in HEK293-CCK2i4svR cells; assay type: cell-based, human
Procedure: A day before the experiment, HEK293-CCK2i4svR cells were seeded in six-well plates. The next day, cells were rinsed with ice-cold internalization medium (IM: DMEM Glutamax-I, supplemented by 1% (v/v) FBS) and then the fresh medium was added (1.2 mL) at 37 °C. A further portion of IM (150 µL) was added in the upper well-row, and DG2 solution in IM (150 µL) was added in the lower row (to a final concentration of 1 μM; non-specific series). Each of the test radioligands, [^67Ga]Ga/[^111In]In/[^177Lu]Lu-GAS1/3 and [^67Ga]Ga/[^111In]In-GAS2, was finally added (250 fmol total conjugates in 150 μL 0.5% BSA-PBS) in all the wells and the plates were incubated at for 1 h at 37 °C in an Incubator-Orbital Shaker unit (MPM Instr. SrI, Bernareggio, MI, Italy); [^111In]In-GAS1/2/3 were incubated for 15 min, 30 min, 1 h and 2 h. At the predetermined time points, the plates were placed on ice, the medium was collected, and the plates were rinsed with 0.5% BSA-PBS (1 mL). Cells were subsequently treated with an acid-wash solution (2 × 600 µL; 50 mM glycine buffer pH 2.8, 0.1 M NaCl) and the fractions collected (membrane-bound). After briefly washing with 0.5% BSA-PBS (1 mL), the cells were lysed with 1 N NaOH (2 × 600 µL), and the fractions were collected (internalized). The radioactivity content of collected fractions was counted in the gamma counter, and the percentage of internalized and membrane-bound fractions per time point were calculated with Microsoft Excel. Specific internalized and membrane-bound counts were determined by subtracting the respective non-specific (in the presence of 1 μM DG2) from the respective total counts. Results represent specific internalized/membrane bound ± SD of total added radioactivity per well from three experiments performed in triplicate.

[1] = Radioligand stability in mice (radio-HPLC of blood and urine); assay type: in vivo; conditions: mean ± SD
Procedure: The formation of radiometabolites which can be detected in the blood was tested in blood samples collected 5 min post-injection (pi) of each of the radioligands [^67Ga]Ga/[^111In]In/[^177Lu]Lu-GAS1/3 and [^67Ga]Ga/[^111In]In-GAS2. For this study, in-house male Swiss albino mice (body weight: 30 ± 5 g, provided by the NCSR “Demokritos” Animal House) were used in groups of three. The animals received, through the tail vein, a 100-μL bolus containing each radioligand tested (2.5–3 nmol of the total conjugate in vehicle: saline/EtOH 9/1 v/v, corresponding to: up to 11 MBq for In-111, up to 13 MBq for Ga-67 and up to 74 MBq for Lu-177). Mice were euthanized, and blood was collected directly from the heart using a prechilled penicillin syringe and transferred in a prechilled EDTA-containing Eppendorf Protein LoBind® tube on ice (40 µL, 50 mM Na2EDTA solution). After centrifugation (10 min, 2000× g/4 °C, in a Hettich, Universal 320R, centrifuge), the blood plasma was collected, mixed with chilled MeCN in a 1/1 v/v ratio and centrifuged again (10 min, 15,000× g/4 °C). Supernatants were collected and concentrated to a small volume (≈50–100 μL) under a gentle N2-flux at 40 °C. They were then diluted with physiological saline (≈400 μL) and filtered through a Millex GV filter (0.22 μm, 13 mm Ø, Millipore, Milford, CT, USA). Aliquots of the filtrate were analyzed by radio-RP-HPLC using a Waters Symmetry Shield RP18 cartridge column (5 μm, 3.9 mm × 20 mm) eluted at a flow rate of 1.0 mL/min with the following gradient: 100% A/0% B to 55% A/45% B in 45 min; A = 0.1% aqueous TFA (v/v) and B = MeCN (system 2). The elution time (tR) of each parent radioligand was determined by coinjection of blood samples with an aliquot of the labeling solution on the HPLC column. Results were calculated as the average percentage of intact radioligand ± SD derived from three independent experiments.
Following the same injection protocol, radioligands were administered in additional groups of mice, but this time animals were euthanized 30 min pi. The urine was immediately collected from the bladder using a prechilled syringe and transferred as before in a prechilled EDTA-containing Eppendorf Protein LoBind® centrifuge tube on ice (40 µL, 50 mM Na2EDTA solution) and 0.1 mL of physiological saline. Urine proteins were precipitated by adding chilled MeCN in a 1/1 v/v ratio followed by a 10 min centrifugation step (15,000× g/4 °C). The supernatant was then collected and treated following the blood sample workup procedure. Aliquots of the Millex-GV filtrate (containing >90% of total urine activity) were analyzed by radio-HPLC, adopting the aforementioned conditions. Results were calculated as the average percentage of intact radioligand ± SD derived from three independent experiments.

[2] = tested on: SCID mice bearing twin HEK293-CCK2i4svR and wtHEK293 tumors; experiment: Biodistribution in SCID mice bearing twin HEK293-CCK2i4svR and wtHEK293 xenografts; assay type: in vivo
Procedure: Inocula containing a suspension of freshly harvested HEK293-CCK2i4svR/wtHEK293 cells (150 μL, 1.8 × 10^7/1.4 × 10^7 cells, respectively, in normal saline) were subcutaneously (sc) injected in the right and left flanks of male SCID mice (24.5 ± 2.3 g body weight, six weeks of age on arrival day, NCSR “Demokritos” Animal House Facility). Well-palpable tumors (0.42 ± 0.37/0.25 ± […], respectively) were grown at the inoculation site 3–4 weeks later, and biodistribution was conducted. On the day of biodistribution, animals were divided into groups of four and received the radioligand through the tail vein as a bolus (100 μL, containing each of: i. 78–91 kBq [^67Ga]GAS1/2/3 corresponding to 7–17 pmol GAS1/2/3; ii. 74–92 kBq [^111In]GAS1/2/3 corresponding to 20–25 pmol GAS1/2/3; iii. 730 kBq [^177Lu]Lu-GAS1/3 corresponding to 40 pmol GAS1/3, in-vehicle: saline/EtOH 9/1 v/v). Animals were euthanized at predetermined time intervals depending upon the radionuclide applied (for [^67Ga]Ga-GAS1/2/3: 1, 4 and 24 h pi; for [^111In]In-GAS1/2/3: 4 and 24 h pi–two extra groups of mice receiving gelofusine together with [^111In]In-GAS1/2 at 4 and 24 h pi were included; and for [^177Lu]Lu-GAS1/3: 4, 24, 48, 72 and 96 h pi). Mice were dissected, and blood samples, organs of interest and tumors were rapidly collected, weighted and counted in the gamma counter. Biodistribution data was calculated as the percentage of the administered dose per gram tissue (%IA/g) with the aid of suitable standards of the administered dose and the Microsoft Excel program. Results are presented as mean % IA/g values ± SD, n = 4 per time point, as determined by the PRISM^TM 6.0 GraphPad software (San Diego, CA, USA).

Intact radioligand in blood ([1]; mice blood collected 5 min pi): 93.9 ± 0.6 (3) %
Intact radioligand in urine ([1]; mice urine collected 30 min pi): 80.2 ± 1.0 (3) %
Biodistribution, Blood ([2]; 1 h pi): 6.53 ± 1.33 %IA/g
Biodistribution, CCK2i4svR(+) Tumor ([2]; 1 h pi): 12.62 ± 1.76 %IA/g
Biodistribution, CCK2i4svR(-) Tumor ([2]; 1 h pi): 1.62 ± 0.12 %IA/g
Biodistribution, Femur ([2]; 1 h pi): 0.97 ± 0.12 %IA/g
Biodistribution, Heart ([2]; 1 h pi): 2.11 ± 0.86 %IA/g
Biodistribution, Intestines ([2]; 1 h pi): 2.33 ± 0.44 %IA/g
Biodistribution, Kidneys ([2]; 1 h pi): 5.78 ± 0.48 %IA/g
Biodistribution, Liver ([2]; 1 h pi): 3.39 ± 0.35 %IA/g
Biodistribution, Lungs ([2]; 1 h pi): 3.63 ± 0.69 %IA/g
Biodistribution, Muscle ([2]; 1 h pi): 0.61 ± 0.07 %IA/g
Biodistribution, Pancreas ([2]; 1 h pi): 2.26 ± 0.18 %IA/g
Biodistribution, Spleen ([2]; 1 h pi): 1.63 ± 0.16 %IA/g
Biodistribution, Stomach ([2]; 1 h pi): 1.09 ± 0.22 %IA/g
Biodistribution, Blood ([2]; 4 h pi): 1.25 ± 0.27 %IA/g
Biodistribution, CCK2i4svR(-) Tumor ([2]; 4 h pi): 0.75 ± 0.19 %IA/g
Biodistribution, Femur ([2]; 4 h pi): 0.29 ± 0.16 %IA/g
Biodistribution, Heart ([2]; 4 h pi): 0.47 ± 0.09 %IA/g
Biodistribution, Intestines ([2]; 4 h pi): 2.84 ± 0.38 %IA/g
Biodistribution, Kidneys ([2]; 4 h pi): 3.59 ± 0.60 %IA/g
Biodistribution, Liver ([2]; 4 h pi): 2.49 ± 0.31 %IA/g
Biodistribution, Lungs ([2]; 4 h pi): 1.19±0.21 %IA/g
Biodistribution, Muscle ([2]; 4 h pi): 0.19±0.07 %IA/g
Biodistribution, Pancreas ([2]; 4 h pi): 0.51 ± 0.09 %IA/g
Biodistribution, Spleen ([2]; 4 h pi): 0.78±0.02 %IA/g
Biodistribution, Stomach ([2]; 4 h pi): 0.37 ± 0.08 %IA/g
Biodistribution, Blood ([2]; 24 h pi): 0.08 ± 0.01 %IA/g
Biodistribution, CCK2i4svR(+) Tumor ([2]; 24 h pi): 2.47 ± 0.41 %IA/g
Biodistribution, CCK2i4svR(-) Tumor ([2]; 24 h pi): 0.00 ± 0.00 %IA/g
Biodistribution, Femur ([2]; 24 h pi): 0.18 ± 0.04 %IA/g
Biodistribution, Heart ([2]; 24 h pi): 0.13 ± 0.01 %IA/g
Biodistribution, Intestines ([2]; 24 h pi): 0.32 ± 0.13 %IA/g
Biodistribution, Kidneys ([2]; 24 h pi): 0.88 ± 0.17 %IA/g
Biodistribution, Liver ([2]; 24 h pi): 0.75 ± 0.08 %IA/g
Biodistribution, Lungs ([2]; 24 h pi): 0.31 ± 0.16 %IA/g
Biodistribution, Muscle ([2]; 24 h pi): 0.05 ± 0.02 %IA/g
Biodistribution, Pancreas ([2]; 24 h pi): 0.22 ± 0.01 %IA/g
Biodistribution, Spleen ([2]; 24 h pi): 0.51 ± 0.12 %IA/g
Biodistribution, Stomach ([2]; 24 h pi): 0.18 ± 0.02 %IA/g
SMILES: CC(C)(C)C(=O)CN1C(=O)[C@H](NC(=O)Nc2cccc(C(=O)NCCOCCOCCOCCNC(=O)[C@H](CCC(=O)O)NC(=O)CN3CCN(CC(=O)[O-])CCN(CC(=O)[O-])CCN(CC(=O)[O-])CC3)c2)CN(C2CCCCC2)c2ccccc21.[67Ga+3] (stereo in doubt) [[^67Ga]Ga-GAS1]
Internalized to membrane-bound ratio (HEK293-CCK2i4svR cells): 0.7
Internalized fraction (HEK293-CCK2i4svR cells; 1 h 37 °C, specific): 1.79 ± 0.45 % of total added activity
Cell uptake (internalized + membrane-bound) (HEK293-CCK2i4svR cells; 1 h 37 °C, specific, of total added activity): 4.26 ± 0.99%
